Here are results for 14 compounds from patent US20220356174A1, “PYRIDIN-2-ONE COMPOUNDS USEFUL AS SMARCA2 ANTAGONISTS” (Epizyme, Inc., priority 2018, published 2022).

The first assay deals with T1, FL-SMARCA2 (full-length human SMARCA2 isoform 1) (Homo sapiens, UniProt P51531).
T1 construct: FLAG tag (YKDDDDK) (C); made in house; host or cells: Sf21 insect cells (baculovirus, pFastBacI)
T1 sequence (P51531 with tags, fused parts or gaps): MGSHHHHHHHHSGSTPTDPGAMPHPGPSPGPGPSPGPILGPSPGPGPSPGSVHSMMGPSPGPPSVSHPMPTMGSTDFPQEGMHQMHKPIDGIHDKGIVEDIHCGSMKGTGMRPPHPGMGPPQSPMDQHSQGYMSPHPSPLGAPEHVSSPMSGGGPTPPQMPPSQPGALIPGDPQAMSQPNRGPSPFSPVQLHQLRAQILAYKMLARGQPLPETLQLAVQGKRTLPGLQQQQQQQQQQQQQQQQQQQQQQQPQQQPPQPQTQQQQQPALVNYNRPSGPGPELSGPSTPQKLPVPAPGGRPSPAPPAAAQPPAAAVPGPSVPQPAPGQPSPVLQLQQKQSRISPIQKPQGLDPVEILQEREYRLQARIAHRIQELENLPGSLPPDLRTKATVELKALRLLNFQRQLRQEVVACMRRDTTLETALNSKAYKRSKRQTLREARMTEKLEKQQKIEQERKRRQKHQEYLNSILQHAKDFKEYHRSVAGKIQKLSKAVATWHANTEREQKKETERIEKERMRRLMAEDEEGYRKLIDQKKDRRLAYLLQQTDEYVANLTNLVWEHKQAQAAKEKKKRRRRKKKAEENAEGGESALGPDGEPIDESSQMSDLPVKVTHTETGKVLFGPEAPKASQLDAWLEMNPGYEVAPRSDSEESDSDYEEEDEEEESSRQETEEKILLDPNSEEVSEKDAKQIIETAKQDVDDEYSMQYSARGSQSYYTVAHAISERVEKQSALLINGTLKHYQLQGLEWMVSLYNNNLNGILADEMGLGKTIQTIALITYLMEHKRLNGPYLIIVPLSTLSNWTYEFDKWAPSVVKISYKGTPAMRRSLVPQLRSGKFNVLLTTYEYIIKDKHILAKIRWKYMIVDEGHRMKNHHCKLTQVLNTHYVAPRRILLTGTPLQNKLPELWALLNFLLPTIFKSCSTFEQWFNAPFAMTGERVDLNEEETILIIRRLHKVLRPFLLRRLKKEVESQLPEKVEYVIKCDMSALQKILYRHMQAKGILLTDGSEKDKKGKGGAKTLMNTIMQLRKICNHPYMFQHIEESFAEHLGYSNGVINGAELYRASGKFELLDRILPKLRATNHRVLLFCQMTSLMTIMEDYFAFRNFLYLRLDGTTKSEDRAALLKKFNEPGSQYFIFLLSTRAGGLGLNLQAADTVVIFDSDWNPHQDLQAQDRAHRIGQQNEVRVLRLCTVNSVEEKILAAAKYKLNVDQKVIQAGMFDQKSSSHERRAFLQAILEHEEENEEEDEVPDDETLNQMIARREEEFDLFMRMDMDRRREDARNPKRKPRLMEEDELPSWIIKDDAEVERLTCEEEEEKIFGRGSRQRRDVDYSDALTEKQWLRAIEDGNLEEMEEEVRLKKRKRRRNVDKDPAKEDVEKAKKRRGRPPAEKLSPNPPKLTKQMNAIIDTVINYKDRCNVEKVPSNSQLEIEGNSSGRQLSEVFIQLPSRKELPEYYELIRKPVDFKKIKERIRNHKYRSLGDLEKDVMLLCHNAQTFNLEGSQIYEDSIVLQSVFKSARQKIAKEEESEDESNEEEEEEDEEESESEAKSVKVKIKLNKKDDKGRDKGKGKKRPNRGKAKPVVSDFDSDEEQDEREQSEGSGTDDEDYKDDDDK
In words: SMARCA2 ATPase activity assay (ADP-Glo, chicken mononucleosome substrate). In kind it is biochemical. As to conditions: Table 3.1; ATPase assay, enzyme 5 nM, ATP 250 uM, chicken mononucleosome 10 nM, 30 min preincubation.
On to `CC(CF)n1cc(NC(=O)c2cc(Cl)c(C(F)(F)F)s2)cc(F)c1=O` (centres unmarked) [Compound 340], for which the IC50 was found to be 695 nM.
On the same count and under the same terms, with `N#Cc1ncc(C(=O)Nc2cc(C#N)c(=O)n(CCF)c2)s1` [Compound 203] the figure was 40.7 nM; with `CCn1cc(NC(=O)c2cc(Cl)c(C#N)[nH]2)cc(F)c1=O` [Compound 235], 59.1 nM; with `N#Cc1cc(C(=O)Nc2cc(Cl)c(=O)n(CCF)c2)[nH]c1Cl` [Compound 240], 626 nM.
`COc1ncc(C(=O)Nc2cc(F)c(=O)n(CCF)c2)s1` [Compound 223] returned an IC50 of 18400 nM.
Still for that read-out and setting: the same measure for `CS(=O)(=O)c1csc(C(=O)Nc2cc(F)c(=O)n(CCF)c2)c1` [Compound 302]: over 50000 nM; for `N#Cc1[nH]c(C(=O)Nc2ccc(=O)n(CC(F)(F)F)c2)cc1Cl` [Compound 234]: 478 nM.
Same read-out and setting: the same measure for `N#Cc1[nH]c(C(=O)Nc2cc(F)c(=O)n(CCF)c2)cc1Cl` [Compound 232]: 24.9 nM.

Still in this assay, the particulars now being: Table 3d.1; ATPase assay, enzyme 5 nM, ATP 250 uM, chicken mononucleosome 10 nM, 30 min preincubation; read-out: FL-SMARCA2 IC>50.
As to `CC(=O)NC1COCC(C#Cc2cc(C(=O)Nc3cc(F)c(=O)n(CC(F)F)c3)sc2Cl)C1` (centres unmarked) [Compound 57d], the IC50 was determined as 51.6 nM.
On the same count and under the same terms, the same measure for `O=C(Nc1cc(F)c(=O)n(CC(F)F)c1)c1cc(C#Cc2cnc3n2CCOC3)c(Cl)s1` [Compound 95d]: 334 nM.
Still for that read-out and setting: the same measure for `CN1CCCC(C#Cc2sc(C(=O)Nc3cc(F)c(=O)n(CC(F)F)c3)cc2Cl)C1` (centres unmarked) [Compound 132d]: over 50000 nM; for `O=C(Nc1cc(Cl)c(=O)n(CC(F)F)c1)c1cc(Cl)c(C(F)(F)F)s1` [Compound 79d]: 43.2 nM.

The next assay concerns A549 cells. In words: High-throughput proliferation (HTP) assay for A549 cells (CellTiter-Glo, 7 days). The settings on record: Homo sapiens, 168 h, read-out: A549 SMARCA2 IC50. Type of assay: cell-based. As to the method:
Thawing vials: A549 cells (ATCC #CCL-185™) were thawed from a cryovial containing approximately 1.6×10^6 cells frozen in 70% F12K medium, 20% HI-FBS and 10% DMSO. Cells were thawed by submerging the bottom half of the vial in a 37° C. water bath and gently flicked until almost thawed. The cells were transferred into a 15 mL conical tube containing 9 mL of F12K medium+10% HI-FBS and then centrifuged at 200×g for 4 min before drawing off the media without disturbing the cell pellet in order to remove the DMSO. The cells were resuspended again in 15 mL of F12K fresh complete media+10% HI-FBS and grown up in a T75 flask at 37° C. with 5% CO2 Incubator. Viability was measured to obtain baseline.
Frozen stock vials preparation: The cell culture was transferred to a 50 mL conical tube, spun down to remove medium, and resuspended at 1-2×10^6 cells/mL in complete medium containing 10% DMSO. The culture was then stored for 24 hours at −80 degree C., (with the initial rate of freezing is −1 degree C. per minute in a freezing container), then transferred and stored in liquid nitrogen.
(§1) Routine subculture: Sub-confluent cultures (70-80%) were split every 4 days, seeding out at 1-2×10^6 cells/75 cm^2.
Day 0: Assay ready plates were prepared by dispensing 50 nL of compound or DMSO in the appropriate wells of 384-well white CulturPlates using Echo550. Using the Multiflo, A549 cells were plated at 50 μL/well in F12K complete media+10% HI-FBS+1% pen/strep at cell density determined [1,250 cells/mL (62.5 cells/well)] from growth curve.
Treated cells were incubated at 37° C., 5% CO2, relative humidity >90% for 7 days. CellTiter-Glo (CTG) ATP detection reagent was prepared according to manufacturer's specifications. Cell assay plates were removed from the incubator and brought to room temperature (RT). Using the MultiDrop liquid handler, 30 μL of CTG were added per well. Plates were placed on the multidrop dispenser shake for 5 seconds at room temperature (RT). Plates were incubated for 30 minutes in the dark at RT before measuring luminescence using the Envison2104.
Data analysis: Using the DMSO control wells as the 0% inhibition (high signal) control and the 10 μM Doxorubicin control wells as the 100% inhibition (low signal) control, percent inhibition EC50s (inflection point) and IC50 s were calculated for the compound dose responses.
In general terms: Cellular ATP, detected with luciferase, serves as a proxy for viable cell number.
`CC(=O)NC1COCC(C#Cc2cc(C(=O)Nc3cc(F)c(=O)n(CC(F)F)c3)sc2Cl)C1` (centres unmarked) [Compound 57d]: the IC50 was over 10000 nM.
On the same count and under the same terms, with `O=C(Nc1cc(F)c(=O)n(CC(F)F)c1)c1cc(C#Cc2cnc3n2CCOC3)c(Cl)s1` [Compound 95d] the figure was over 10000 nM; with `CN1CCCC(C#Cc2sc(C(=O)Nc3cc(F)c(=O)n(CC(F)F)c3)cc2Cl)C1` (centres unmarked) [Compound 132d], 7980 nM; with `O=C(Nc1cc(F)c(=O)n(CC(F)F)c1)c1cc(C#Cc2ccnc(-c3ncco3)c2)c(Cl)s1` [Compound 150c], 932 nM.
The same measure, in the same setting: with `O=C(Nc1cc(Cl)c(=O)n(CC(F)F)c1)c1cc(Cl)c(C(F)(F)F)s1` [Compound 79d] the figure was 3650 nM.
Still for that read-out and setting: the same measure for `CC(CF)n1cc(NC(=O)c2cc(Cl)c(C(F)(F)F)s2)cc(F)c1=O` (centres unmarked) [Compound 340]: over 10000 nM.
Turning to `N#Cc1ncc(C(=O)Nc2cc(C#N)c(=O)n(CCF)c2)s1` [Compound 203], the IC50 was at least 20000 nM.
As to `CCn1cc(NC(=O)c2cc(Cl)c(C#N)[nH]2)cc(F)c1=O` [Compound 235], the IC50 was at least 20000 nM.
Regarding `N#Cc1cc(C(=O)Nc2cc(Cl)c(=O)n(CCF)c2)[nH]c1Cl` [Compound 240], the IC50 is at least 20000 nM.
Same read-out and setting: with `COc1ncc(C(=O)Nc2cc(F)c(=O)n(CCF)c2)s1` [Compound 223] the figure was at least 20000 nM; with `CS(=O)(=O)c1csc(C(=O)Nc2cc(F)c(=O)n(CCF)c2)c1` [Compound 302], over 10000 nM; with `N#Cc1[nH]c(C(=O)Nc2ccc(=O)n(CC(F)(F)F)c2)cc1Cl` [Compound 234], at least 20000 nM.
On the same count and under the same terms, with `N#Cc1[nH]c(C(=O)Nc2cc(F)c(=O)n(CCF)c2)cc1Cl` [Compound 232] the figure was 15500 nM; with `Cn1cncc1C#Cc1cc(C(=O)Nc2cc(F)c(=O)n(CC(F)F)c2)sc1Cl` [Compound 330], over 10000 nM.

The test system of the next assay is H358 cells. Description: High-throughput proliferation (HTP) assay for H358 cells (CellTiter-Glo, 7 days). As to conditions: Homo sapiens, NCI-H358, 168 h, read-out: H358 SMARCA2 IC50. In kind it is cell-based. As to the method:
Thawing vials: H358 cells (ATCC #CRL-5807™) were thawed from a cryovial containing approximately 1.6×10^6 cells frozen in 70% RPMI 1640 medium, 20% HI-FBS and 10% DMSO. Cells were thawed by submerging the bottom half of the vial in a 37° C. water bath and gently flicked until almost thawed. The cells were removed and transferred into a 15 mL conical tube containing 9 mL RPMI 1640 medium+10% HI-FBS and then centrifuged 200×g for 4 min before drawing off the media without disturbing the cell pellet to remove the DMSO. The cells were resuspended again in 15 mL of RPMI 1640 fresh complete media+10% HI-FBS and grown up in a T75 flask at 37° C. with 5% CO2 Incubator. Viability was measured to obtain baseline.
Preparing frozen stock vials: Cell density was counted in a stock flask. The culture was transferred to a 50 mL conical tube and spun down to remove medium, and then resuspend at 1-2×10^6 cells/mL in complete medium containing 10% DMSO and transferred to a 1 mL per vial.
as §1
Day 0: Assay ready plates were prepared by dispensing 50 nL of compound stock or DMSO in the appropriate wells of 384-well white CulturPlates using Echo550. Using the Multiflo, H358 cells at 50 μL/well were plated in RPMI 1640 complete media+10% HI-FBS+1% pen/strep at cell density determined [20,000 cells/mL (1,000 cells/well)] from growth curve. Treated cells were inclubated at 37° C., 5% CO2, relative humidity >90% for 7 days. CellTiter-Glo (CTG) ATP detection reagent was prepared according to manufacturer's specifications. Cell assay plates were removed from incubator and bring to room temperature (RT).
Using the MultiDrop liquid handler, 30 μL of CTG were added per well. Plates were placed on the multidrop dispenser shake for 5 seconds at RT. Plates were incubated for 30 minutes in the dark at RT before measuring luminescence using the Envison2104.
Data analysis: Using the DMSO control wells as the 0% inhibition (high signal) control and the 10 uM Doxorubicin control wells as the 100% inhibition (low signal) control, percent inhibition EC50s (inflection point) and IC50s were calculated for the compound dose responses.
Turning to `CC(=O)NC1COCC(C#Cc2cc(C(=O)Nc3cc(F)c(=O)n(CC(F)F)c3)sc2Cl)C1` (centres unmarked) [Compound 57d], the IC50 is over 10000 nM.
Same read-out and setting: with `O=C(Nc1cc(F)c(=O)n(CC(F)F)c1)c1cc(C#Cc2cnc3n2CCOC3)c(Cl)s1` [Compound 95d] the figure was over 10000 nM; with `CN1CCCC(C#Cc2sc(C(=O)Nc3cc(F)c(=O)n(CC(F)F)c3)cc2Cl)C1` (centres unmarked) [Compound 132d], over 10000 nM; with `O=C(Nc1cc(F)c(=O)n(CC(F)F)c1)c1cc(C#Cc2ccnc(-c3ncco3)c2)c(Cl)s1` [Compound 150c], over 10000 nM.
On the same count and under the same terms, the same measure for `O=C(Nc1cc(Cl)c(=O)n(CC(F)F)c1)c1cc(Cl)c(C(F)(F)F)s1` [Compound 79d]: over 10000 nM; for `Cn1cncc1C#Cc1cc(C(=O)Nc2cc(F)c(=O)n(CC(F)F)c2)sc1Cl` [Compound 330]: 8740 nM.

Another assay deals with FL-SMARCA4 (Homo sapiens, UniProt P51532). In words: SMARCA4 ATPase activity assay (ADP-Glo, chicken mononucleosome substrate). The settings on record: FL-SMARCA4 IC50. On the technique in general: ADP-Glo first removes unused ATP, then detects ADP through luciferase.
Chain of FL-SMARCA4 (P51532 whole entry): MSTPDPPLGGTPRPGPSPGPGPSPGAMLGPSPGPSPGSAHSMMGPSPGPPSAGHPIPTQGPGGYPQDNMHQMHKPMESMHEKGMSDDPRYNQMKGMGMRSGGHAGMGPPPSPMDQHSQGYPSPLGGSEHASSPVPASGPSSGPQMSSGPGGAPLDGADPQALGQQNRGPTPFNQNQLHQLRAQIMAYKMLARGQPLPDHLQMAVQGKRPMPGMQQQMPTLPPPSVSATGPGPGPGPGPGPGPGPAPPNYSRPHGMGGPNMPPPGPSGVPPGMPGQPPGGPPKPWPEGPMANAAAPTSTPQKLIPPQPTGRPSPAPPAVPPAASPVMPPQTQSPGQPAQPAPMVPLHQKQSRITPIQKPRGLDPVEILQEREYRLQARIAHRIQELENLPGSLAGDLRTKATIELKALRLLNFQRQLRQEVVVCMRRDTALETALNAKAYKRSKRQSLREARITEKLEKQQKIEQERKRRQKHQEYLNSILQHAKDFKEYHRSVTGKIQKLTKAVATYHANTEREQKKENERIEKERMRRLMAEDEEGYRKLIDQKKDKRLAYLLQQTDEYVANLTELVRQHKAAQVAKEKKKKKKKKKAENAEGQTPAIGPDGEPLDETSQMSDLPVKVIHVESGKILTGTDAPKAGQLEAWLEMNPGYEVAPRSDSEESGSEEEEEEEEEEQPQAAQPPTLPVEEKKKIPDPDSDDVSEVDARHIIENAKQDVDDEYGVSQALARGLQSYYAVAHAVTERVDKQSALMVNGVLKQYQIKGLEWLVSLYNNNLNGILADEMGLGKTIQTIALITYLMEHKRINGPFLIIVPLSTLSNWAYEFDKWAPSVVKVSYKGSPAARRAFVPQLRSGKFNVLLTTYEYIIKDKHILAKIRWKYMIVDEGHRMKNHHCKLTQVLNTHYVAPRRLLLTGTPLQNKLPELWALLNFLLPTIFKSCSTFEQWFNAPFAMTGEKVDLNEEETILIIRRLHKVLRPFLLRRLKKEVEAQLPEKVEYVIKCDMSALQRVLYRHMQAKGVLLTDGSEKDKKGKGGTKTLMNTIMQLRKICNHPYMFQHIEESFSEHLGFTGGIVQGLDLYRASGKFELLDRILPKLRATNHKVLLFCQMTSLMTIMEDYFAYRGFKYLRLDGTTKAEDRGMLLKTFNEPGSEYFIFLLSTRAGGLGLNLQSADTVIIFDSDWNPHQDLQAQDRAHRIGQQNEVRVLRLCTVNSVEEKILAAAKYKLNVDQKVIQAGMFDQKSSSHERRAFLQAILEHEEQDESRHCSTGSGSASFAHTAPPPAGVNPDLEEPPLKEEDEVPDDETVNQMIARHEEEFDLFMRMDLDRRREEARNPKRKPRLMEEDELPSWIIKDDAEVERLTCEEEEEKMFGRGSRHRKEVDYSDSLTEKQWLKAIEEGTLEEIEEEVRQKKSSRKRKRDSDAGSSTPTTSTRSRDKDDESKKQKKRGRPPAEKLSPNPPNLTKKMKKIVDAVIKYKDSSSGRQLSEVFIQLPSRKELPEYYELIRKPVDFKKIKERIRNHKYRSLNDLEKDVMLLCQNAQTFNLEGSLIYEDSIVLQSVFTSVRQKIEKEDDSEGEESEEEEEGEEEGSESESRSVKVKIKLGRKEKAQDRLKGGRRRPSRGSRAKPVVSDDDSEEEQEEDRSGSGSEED
In the case of `CC(=O)NC1COCC(C#Cc2cc(C(=O)Nc3cc(F)c(=O)n(CC(F)F)c3)sc2Cl)C1` (centres unmarked) [Compound 57d], the IC50 stood at 191 nM.
With `O=C(Nc1cc(F)c(=O)n(CC(F)F)c1)c1cc(C#Cc2cnc3n2CCOC3)c(Cl)s1` [Compound 95d], the IC50 came to 1060 nM.
The same measure, in the same setting: with `CN1CCCC(C#Cc2sc(C(=O)Nc3cc(F)c(=O)n(CC(F)F)c3)cc2Cl)C1` (centres unmarked) [Compound 132d] the figure was over 50000 nM.

The same assay, now with this note: FL-SMARCA4 IC50, Table 3.2; ATPase assay, enzyme 5 nM, ATP 250 uM, chicken mononucleosome 10 nM, 30 min preincubation.
`CC(CF)n1cc(NC(=O)c2cc(Cl)c(C(F)(F)F)s2)cc(F)c1=O` (centres unmarked) [Compound 340] returned an IC50 of 4890 nM.
The same measure, in the same setting: with `N#Cc1ncc(C(=O)Nc2cc(C#N)c(=O)n(CCF)c2)s1` [Compound 203] the figure was 118 nM; with `CCn1cc(NC(=O)c2cc(Cl)c(C#N)[nH]2)cc(F)c1=O` [Compound 235], 272 nM; with `N#Cc1cc(C(=O)Nc2cc(Cl)c(=O)n(CCF)c2)[nH]c1Cl` [Compound 240], 2390 nM.
On the same count and under the same terms, with `COc1ncc(C(=O)Nc2cc(F)c(=O)n(CCF)c2)s1` [Compound 223] the figure was over 50000 nM; with `CS(=O)(=O)c1csc(C(=O)Nc2cc(F)c(=O)n(CCF)c2)c1` [Compound 302], over 50000 nM; with `N#Cc1[nH]c(C(=O)Nc2ccc(=O)n(CC(F)(F)F)c2)cc1Cl` [Compound 234], 1740 nM.
On the same count and under the same terms, with `N#Cc1[nH]c(C(=O)Nc2cc(F)c(=O)n(CCF)c2)cc1Cl` [Compound 232] the figure was 111 nM.

Still in this assay, the particulars now being: FL-SMARCA4 IC>50, Table 3c.2; ATPase assay, enzyme 5 nM, ATP 250 uM, chicken mononucleosome 10 nM, 30 min preincubation.
Turning to `O=C(Nc1cc(F)c(=O)n(CC(F)F)c1)c1cc(C#Cc2ccnc(-c3ncco3)c2)c(Cl)s1` [Compound 150c], the IC50 is 14.5 nM.
